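Test compounds were applied to cells in 96-well plates for 48 hours at 5 doses. Abbreviation: GI50, concentration required for 50% inhibition of growth.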 Active and inactive are the calls of the source. Cut-off read from the data, not from the text of the source: active = GI50 up to about 1.1 µM and inactive = higher.
Key:
Assay in all cases: NCI anticancer screen, dose series, 48 h
[1] = test system: UO-31
[2] = test system: SF-539
[3] = test system: SNB-19
[4] = test system: UACC-257
[5] = test system: SF-295
[6] = test system: SR
[7] = test system: 786-0
[8] = test system: KM12
[9] = test system: A549
[10] = test system: HCT-116
[11] = test system: U-251
[12] = test system: IGROV-1
[13] = test system: Malme-3M
[14] = test system: LOX IMVI
[15] = test system: HOP-92
[16] = test system: NCI-H460
[17] = test system: M14
[18] = test system: HOP-62
[19] = test system: PC-3
[20] = test system: SK-MEL-2
[21] = test system: OVCAR-4
[22] = test system: UACC-62
[23] = test system: CCRF-CEM
[24] = test system: K562
[25] = test system: DU-145
[26] = test system: OVCAR-8
[27] = test system: HT-29
[28] = test system: BT-549
[29] = test system: MOLT-4
[30] = test system: T47D
[31] = test system: OVCAR-3
[32] = test system: SN12C
[33] = test system: OVCAR-5
[34] = test system: SW-620
[35] = test system: SK-OV-3
[36] = test system: SK-MEL-5
[37] = test system: HCT-15
[38] = test system: EKVX
[39] = test system: MDA-MB-231
[40] = test system: MDA-N
[41] = test system: NCI-H522
[42] = test system: NCI-H226
[43] = test system: HL-60
[44] = test system: MCF7
[45] = test system: RPMI-8226
[46] = test system: SF-268
[47] = test system: NCI-H23
[48] = test system: ACHN
[49] = test system: HCC 2998
[50] = test system: COLO 205
[51] = test system: SK-MEL-28
[52] = test system: NCI/ADR-RES
[53] = test system: MDA-MB-435
[54] = test system: TK-10
[55] = test system: RXF 393
[56] = test system: Hs-578T
[57] = test system: SNB-75
[58] = test system: CAKI-1

Compound: O=c1c2ccccc2nc2n1NC(c1c(Cl)cccc1Cl)N2c1cccc(Cl)c1 (configuration not stated)
- GI50 [1]: 2.38 µM (inactive)
- GI50 [2]: 11.5 µM (inactive)
- GI50 [3]: 4.43 µM (inactive)
- GI50 [4]: 25.2 µM (inactive)
- GI50 [5]: 9.33 µM (inactive)
- GI50 [6]: 8.55 µM (inactive)
- GI50 [7]: 2.1 µM (inactive)
- GI50 [8]: 7.24 µM (inactive)
- GI50 [9]: 5.2 µM (inactive)
- GI50 [10]: 3.27 µM (inactive)
- GI50 [11]: 2.14 µM (inactive)
- GI50 [12]: 3.34 µM (inactive)
- GI50 [13]: 8.99 µM (inactive)
- GI50 [14]: 6.79 µM (inactive)
- GI50 [15]: 4.52 µM (inactive)
- GI50 [16]: 5.13 µM (inactive)
- GI50 [17]: 7.24 µM (inactive)
- GI50 [18]: 8.38 µM (inactive)
- GI50 [19]: 5.11 µM (inactive)
- GI50 [20]: 39.1 µM (inactive)
- GI50 [21]: 2.65 µM (inactive)
- GI50 [22]: 5.86 µM (inactive)
- GI50 [23]: > 100 µM (inactive)
- GI50 [24]: 54.2 µM (inactive)
- GI50 [25]: 11.4 µM (inactive)
- GI50 [26]: 3.26 µM (inactive)
- GI50 [27]: 6.73 µM (inactive)
- GI50 [28]: 51.4 µM (inactive)
- GI50 [29]: > 100 µM (inactive)
- GI50 [30]: 5.56 µM (inactive)
- GI50 [31]: 10.6 µM (inactive)
- GI50 [32]: 4.71 µM (inactive)
- GI50 [33]: 4.54 µM (inactive)
- GI50 [34]: 3.32 µM (inactive)
- GI50 [35]: 2.26 µM (inactive)
- GI50 [36]: 16.6 µM (inactive)
- GI50 [37]: 30.3 µM
- GI50 [38]: 6.43 µM (inactive)
- GI50 [39]: 2.79 µM (inactive)
- GI50 [40]: 5.22 µM (inactive)
- GI50 [41]: 10.4 µM (inactive)
- GI50 [42]: 2.56 µM (inactive)
- GI50 [43]: > 100 µM (inactive)
- GI50 [44]: 1.69 µM (inactive)
- GI50 [45]: 4.69 µM (inactive)
- GI50 [46]: 11.9 µM (inactive)
- GI50 [47]: 14.6 µM (inactive)
- GI50 [48]: 3.1 µM (inactive)
- GI50 [49]: 4.42 µM (inactive)
- GI50 [50]: 8.53 µM (inactive)
- GI50 [51]: 12.7 µM (inactive)
- GI50 [52]: 6.44 µM (inactive)
- GI50 [53]: 9.35 µM (inactive)
- GI50 [54]: 7.69 µM (inactive)
- GI50 [55]: 4.78 µM (inactive)
- GI50 [56]: 7.55 µM (inactive)
- GI50 [57]: 2.64 µM (inactive)
- GI50 [58]: 10.8 µM (inactive)

Compound: Cc1ccc(NC(=S)NNC(=O)c2cc(-c3ccccc3)nc3ccccc23)cc1
- GI50 [1]: 12.7 µM (inactive)
- GI50 [2]: 15.7 µM (inactive)
- GI50 [3]: 16.7 µM (inactive)
- GI50 [4]: 14.4 µM (inactive)
- GI50 [5]: 5.92 µM (inactive)
- GI50 [6]: 3.18 µM (inactive)
- GI50 [7]: 13 µM (inactive)
- GI50 [8]: 11.1 µM (inactive)
- GI50 [9]: 11.9 µM (inactive)
- GI50 [10]: 8.59 µM (inactive)
- GI50 [11]: 5.68 µM (inactive)
- GI50 [12]: 15.2 µM (inactive)
- GI50 [13]: 6.35 µM (inactive)
- GI50 [15]: 11.8 µM (inactive)
- GI50 [16]: 18.7 µM (inactive)
- GI50 [17]: 11.9 µM (inactive)
- GI50 [18]: 13.2 µM (inactive)
- GI50 [19]: 12 µM (inactive)
- GI50 [20]: 10.3 µM (inactive)
- GI50 [21]: 17.9 µM (inactive)
- GI50 [22]: 12.5 µM (inactive)
- GI50 [24]: 13.4 µM (inactive)
- GI50 [25]: 12.9 µM (inactive)
- GI50 [26]: 18.3 µM (inactive)
- GI50 [27]: 24 µM (inactive)
- GI50 [28]: 15.7 µM (inactive)
- GI50 [29]: 14.3 µM (inactive)
- GI50 [30]: 3.21 µM (inactive)
- GI50 [31]: 7.89 µM (inactive)
- GI50 [32]: 16.2 µM (inactive)
- GI50 [33]: 15.4 µM (inactive)
- GI50 [34]: 10.4 µM (inactive)
- GI50 [35]: 16.5 µM (inactive)
- GI50 [36]: 10.4 µM (inactive)
- GI50 [37]: 7.13 µM
- GI50 [39]: 18.5 µM (inactive)
- GI50 [40]: 4.26 µM (inactive)
- GI50 [41]: 14.7 µM (inactive)
- GI50 [42]: 18.7 µM (inactive)
- GI50 [44]: 11.2 µM (inactive)
- GI50 [45]: 4.59 µM (inactive)
- GI50 [46]: 15.8 µM (inactive)
- GI50 [47]: 12.6 µM (inactive)
- GI50 [48]: 16.3 µM (inactive)
- GI50 [49]: 10.8 µM (inactive)
- GI50 [50]: 16 µM (inactive)
- GI50 [51]: 5.96 µM (inactive)
- GI50 [52]: 14 µM (inactive)
- GI50 [53]: 2.81 µM (inactive)
- GI50 [54]: 14 µM (inactive)
- GI50 [55]: 12.8 µM (inactive)
- GI50 [56]: 17.4 µM (inactive)
- GI50 [57]: 12.2 µM (inactive)
- GI50 [58]: 18 µM (inactive)
